Experiment [1] has as its target Histamine H4 receptor (Rattus norvegicus, UniProt Q91ZY1). The experiment is described as follows: Agonist activity at rat histamine H4 receptor expressed in HEK293 cells coexpressing Gqi5 protein assessed as calcium flux by FLIPR assay. The experiment is classed as functional, cell-based. (In general: Calcium flux is commonly read through the fluorescence of an indicator in the cells.)

The target in experiment [2] is Histamine H4 receptor (Rattus norvegicus) (UniProt Q91ZY1). The experiment is described as follows: Agonist activity at rat histamine H4 receptor expressed in HEK293 cells coexpressing Gqi5 protein assessed as calcium flux by FLIPR assay relative to histamine. The experiment is classed as functional, cell-based.
Experiment [3] concerns the target Histamine H4 receptor (Homo sapiens, UniProt Q9H3N8). Particulars: HEK293.

As a reminder, the EC50 is the midpoint of the concentration-response curve. The term pKb denotes the Kb on a negative log10 scale, so that one unit is a factor of ten. Higher therefore signals a small Kb.

Histamine H4 receptor (Rattus norvegicus, UniProt Q91ZY1), sequence (Q91ZY1 whole entry): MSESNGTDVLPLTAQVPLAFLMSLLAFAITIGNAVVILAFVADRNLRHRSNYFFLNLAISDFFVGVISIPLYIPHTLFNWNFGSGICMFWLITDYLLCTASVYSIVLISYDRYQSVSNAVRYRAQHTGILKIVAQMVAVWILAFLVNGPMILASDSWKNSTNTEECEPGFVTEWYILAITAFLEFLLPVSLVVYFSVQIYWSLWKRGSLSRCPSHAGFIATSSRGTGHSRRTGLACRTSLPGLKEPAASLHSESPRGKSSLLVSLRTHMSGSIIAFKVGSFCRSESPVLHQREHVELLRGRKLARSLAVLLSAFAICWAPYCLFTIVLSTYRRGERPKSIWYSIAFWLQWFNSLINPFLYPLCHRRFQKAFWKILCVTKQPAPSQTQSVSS
Histamine H4 receptor (Rattus norvegicus), sequence (Q91ZY1 whole entry): as above
Histamine H4 receptor (Homo sapiens, UniProt Q9H3N8), sequence (Q9H3N8 whole entry): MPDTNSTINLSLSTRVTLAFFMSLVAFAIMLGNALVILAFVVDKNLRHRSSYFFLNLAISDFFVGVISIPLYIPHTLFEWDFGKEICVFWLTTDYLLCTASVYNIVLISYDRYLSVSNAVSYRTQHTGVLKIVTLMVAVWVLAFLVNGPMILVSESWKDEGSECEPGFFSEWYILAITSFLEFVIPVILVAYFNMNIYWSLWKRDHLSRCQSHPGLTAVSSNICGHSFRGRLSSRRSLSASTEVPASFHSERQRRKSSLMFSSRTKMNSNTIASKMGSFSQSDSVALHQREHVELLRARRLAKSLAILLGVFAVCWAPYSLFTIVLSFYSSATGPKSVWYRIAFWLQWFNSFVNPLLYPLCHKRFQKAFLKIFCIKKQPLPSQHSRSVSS

With `CN1CCN(c2cc(-c3ccccc3C#N)nc(N)n2)CC1`, in experiment [1], the half-maximal effective concentration (EC50) was 1200 nM. The Efficacy in experiment [2] was found to be 73%. In experiment [3], this compound returned a pKb of 6.75.
On the same counts, the results for `CN(C)CCNc1cc(C(C)(C)C)nc(N)n1` are 1780 nM, 39% and 6.91.
For `CN1CCN(c2cc(-c3cccc(I)c3)nc(N)n2)CC1`, the half-maximal effective concentration (EC50) in experiment [1] is 891 nM. In addition, in experiment [2], the Efficacy came out at 61%. In experiment [3], this compound had a negative logarithm of the Kb (pKb) of 8.27.
On the same counts, the results for `COc1ccc(-c2cc(N3CCN(C)CC3)nc(N)n2)cc1` are 115 nM, 71% and 8.08.
On the same counts, the results for `CN1CCN(c2cc(Cl)nc(N)n2)CC1` are 17000 nM, 65% and 4.75.
For `CN(C)CCN1CCN(c2cc(C(C)(C)C)nc(N)n2)CC1` the same measures were 2400 nM, 66% and 6.44.
`CN(C)CCOc1cc(C(C)(C)C)nc(N)n1`: the EC50 in experiment [1] is 302 nM. The Efficacy in experiment [2] is 67%. The compound also had a pKb in experiment [3] of 7.02.
For `COc1c(-c2ccc(C#N)cc2)nc(N)nc1N1CCN(C)CC1` the same measures were 5130 nM, 51% and 6.04.
On the same counts, the results for `CN1CCC(c2cc(C(C)(C)C)nc(N)n2)CC1` are 3630 nM, 55% and 5.87.
Consider `CN(C)CCN(C)c1cc(C(C)(C)C)nc(N)n1`, for which, in experiment [1], the EC50 is 1120 nM. In experiment [2], the Efficacy turned out to be 55%. In experiment [3], this compound registered a pKb of 5.71.
On to `Cc1cc(N2CCN(C)CC2)nc(N)n1`, for which the EC50 in experiment [1] is 363 nM. Further, in experiment [2], the Efficacy was 77%. Besides, the negative logarithm of the Kb (pKb) in experiment [3] stood at 7.2.
Regarding `CN1CCN(c2cc(-c3ccc(I)cc3)nc(N)n2)CC1`, the EC50 in experiment [1] was 275 nM. Further, the Efficacy in experiment [2] came to 58%. This compound showed a negative logarithm of the Kb (pKb) in experiment [3] of 7.83.
For `CN1CCN(c2cc(N3CCC(N(C)C)C3)nc(N)n2)CC1` (configuration not stated) the same measures were 3630 nM, 62% and 5.76.
On the same counts, the results for `CNc1cc(N2CCN(C)CC2)nc(N)n1` are 490 nM, 93% and 8.28.
For `CN1CCN(c2cc(N(C)C)nc(N)n2)CC1` the same measures were 3020 nM, 59% and 6.85.
Turning to `CN1CCN(c2cc(C(C)(C)C)ncn2)CC1`, the half-maximal effective concentration (EC50) in experiment [1] is 933 nM. Further, the Efficacy in experiment [2] is 79%. Further, in experiment [3], the pKb was determined as 7.07.
On the same counts, the results for `CN1CCN(c2cc(N3CCCC3)nc(N)n2)CC1` are 69.2 nM, 79% and 8.41.
On the same counts, the results for `CN1CCN(c2cc(-c3cnn(C)c3)nc(N)n2)CC1` are 219 nM, 78% and 7.31.
Consider `CN1CCN(c2cc(C34CC5CC(CC(C5)C3)C4)nc(N)n2)CC1`, for which the concentration for a half-maximal effect (EC50) in experiment [1] was 316 nM. For the same compound, the Efficacy in experiment [2] is 61%. In experiment [3], this compound yielded a pKb of 7.59.
For `CN1CCN(c2cc(O)nc(N)n2)CC1` the same measures were 1480 nM, 92% and 4.44.
For `CN1CCN(c2cc(-c3ccncc3)nc(N)n2)CC1` the same measures were 229 nM, 63% and 7.38.
As to `COc1cccc(-c2cc(N3CCN(C)CC3)nc(N)n2)c1`, the 50% effective concentration (EC50) in experiment [1] is 102 nM. Further, in experiment [2], the Efficacy amounted to 69%. Moreover, in experiment [3], the pKb turned out to be 8.12.
For `CN1CCN(c2nc(N)cc(C(C)(C)C)n2)CC1` the same measures were 7940 nM, 82% and 5.82.
For `CN1CCN(c2cc(-c3cccc(C#N)c3)nc(N)n2)CC1` the same measures were 234 nM, 48% and 8.06.
For `CN1CCN(c2cc(-c3cn[nH]c3)nc(N)n2)CC1` the same measures were 1820 nM, 53% and 8.38.
In the case of `COc1cnc(N)nc1N1CCN(C)CC1`, the EC50 in experiment [1] was 631 nM. Further, the Efficacy in experiment [2] stood at 65%. For the same compound, the negative-log Kb (pKb) in experiment [3] worked out at 6.9.
In the case of `Cc1cnc(N)nc1N1CCN(C)CC1`, the EC50 in experiment [1] was 66.1 nM. Further, the Efficacy in experiment [2] is 81%. This compound also gave a negative-log Kb (pKb) in experiment [3] of 7.07.
On the same counts, the results for `CN(C)CCCN(C)c1cc(C(C)(C)C)nc(N)n1` are 9770 nM, 40% and 5.13.
For the compound `Cc1c(-c2ccc(C#N)cc2)nc(N)nc1N1CCN(C)CC1`, the EC50 in experiment [1] was 58.9 nM. Moreover, the Efficacy in experiment [2] was determined as 63%. In experiment [3], this compound registered a pKb of 7.36.
On the same counts, the results for `CN1CCN(c2cc(I)nc(N)n2)CC1` are 2040 nM, 67% and 6.33.
On the same counts, the results for `CCN1CCN(c2cc(C(C)(C)C)nc(N)n2)CC1` are 245 nM, 55% and 7.86.
On the same counts, the results for `CN1CCN(c2cc(-c3ccc(F)nc3F)nc(N)n2)CC1` are 15.5 nM, 82% and 8.27.
`CN1CCN(c2cc(-c3ccc4ccccc4c3)nc(N)n2)CC1`: in experiment [1], the EC50 was 174 nM. Also, the Efficacy in experiment [2] amounted to 41%. Further, in experiment [3], the negative logarithm of the Kb (pKb) amounted to 7.02.
For `Cc1cccc(-c2cc(N3CCN(C)CC3)nc(N)n2)c1` the same measures were 42.7 nM, 59% and 8.62.
For `CN1CCN(c2cc(C(C)(C)C)nc(O)n2)CC1` the same measures were 22900 nM, 35% and 4.39.
As to `CN1CCN(c2cc(-c3ccccc3)nc(N)n2)CC1`, the EC50 in experiment [1] was 39.8 nM. Moreover, the pKb in experiment [3] is 8.39.
Turning to `COc1cccc(OC)c1-c1cc(N2CCN(C)CC2)nc(N)n1`, in experiment [1], the EC50 was 195 nM. Further, the Efficacy in experiment [2] turned out to be 81%. This compound also gave a pKb in experiment [3] of 6.81.
Regarding `Cc1ccc(-c2cc(N3CCN(C)CC3)nc(N)n2)cc1`, the 50% effective concentration (EC50) in experiment [1] was 56.2 nM. Moreover, in experiment [2], the Efficacy came to 81%. The compound further yielded a pKb in experiment [3] of 8.06.
On the same counts, the results for `CN1CCN(c2cc(-c3cn(C)cn3)nc(N)n2)CC1` are 102 nM, 91% and 8.05.
For `CN1CCN(c2cc(N3CCCCC3)nc(N)n2)CC1` the same measures were 46.8 nM, 73% and 8.05.
Take `CC1CCN(c2cc(C(C)(C)C)nc(N)n2)CC1`: the concentration for a half-maximal effect (EC50) in experiment [1] is 23400 nM. Further, the Efficacy in experiment [2] was 64%. In experiment [3], this compound gave a pKb of 5.2.
For `COc1cc(N2CCN(C)CC2)nc(N)n1` the same measures were 10500 nM, 55% and 5.53.
On the same counts, the results for `CN1CCN(c2cc(N)nc(C(C)(C)C)n2)CC1` are 4680 nM, 50% and 6.28.
On the same counts, the results for `COc1ccncc1-c1cc(N2CCN(C)CC2)nc(N)n1` are 234 nM, 76% and 7.39.
`COc1ncc(-c2cc(N3CCN(C)CC3)nc(N)n2)cn1`: the half-maximal effective concentration (EC50) in experiment [1] was 3240 nM. Further, the Efficacy in experiment [2] came out at 53%. For the same compound, in experiment [3], the negative-log Kb (pKb) turned out to be 5.91.
As for `CN1CCN(c2cc(-c3cccc(Cl)c3)nc(N)n2)CC1`, in experiment [1], the EC50 was 31.6 nM. In experiment [2], the Efficacy came out at 50%. Moreover, in experiment [3], the pKb was 8.24.
For `CN1CCN(c2cc(N)nc(N)n2)CC1` the same measures were 219 nM, 71% and 6.37.
On the same counts, the results for `CN1CCN(c2nc(N)nc(C(C)(C)C)n2)CC1` are 251 nM, 70% and 7.04.
On the same counts, the results for `CN1CCN(c2cc(Sc3ccccc3)nc(N)n2)CC1` are 8910 nM, 68% and 5.99.
Regarding `CN1CCN(c2cc(-c3cncnc3)nc(N)n2)CC1`, the concentration giving a half-maximal response (EC50) in experiment [1] is 7940 nM. Besides, the Efficacy in experiment [2] came out at 61%. Besides, the pKb in experiment [3] is 5.84.
On the same counts, the results for `Cc1ccccc1-c1cc(N2CCN(C)CC2)nc(N)n1` are 178 nM, 60% and 8.07.
On to `CN1CCN(c2cc(N)nc(-c3ccc(C#N)cc3)c2)CC1`, for which, in experiment [1], the EC50 was 1860 nM. Also, the Efficacy in experiment [2] was 84%. The compound also came in with a pKb in experiment [3] of 6.86.
On the same counts, the results for `COc1ccccc1-c1cc(N2CCN(C)CC2)nc(N)n1` are 43.7 nM, 68% and 8.86.
Consider `CC(C)(C)c1cc(N2CCNCC2)nc(-n2cccc2)n1`, for which the 50% effective concentration (EC50) in experiment [1] is 2290 nM. In addition, in experiment [2], the Efficacy was determined as 84%. In experiment [3], this compound gave a negative-log Kb (pKb) of 6.75.
On the same counts, the results for `CN1CCN(c2cc(-c3cccnc3)nc(N)n2)CC1` are 209 nM, 70% and 7.3.
On the same counts, the results for `CNc1nc(N2CCN(C)CC2)cc(C(C)(C)C)n1` are 5130 nM, 46% and 6.08.
For `CN1CCN(c2cc(-c3ccc(Cl)cc3)nc(N)n2)CC1`, the concentration giving a half-maximal response (EC50) in experiment [1] was 37.2 nM. The Efficacy in experiment [2] was 74%. The same compound displayed a negative-log Kb (pKb) in experiment [3] of 8.32.
On the same counts, the results for `CCN(CC)c1cc(N2CCN(C)CC2)nc(N)n1` are 355 nM, 90% and 7.55.
For `CN1CCN(c2cc(C(C)(C)C)nc(N)n2)CC1` the same measures were 67.6 nM, 64% and 8.35.
On the same counts, the results for `CN1CCN(c2cc(N3CCOCC3)nc(N)n2)CC1` are 339 nM, 87% and 7.16.
Consider `CN1CCN(c2cc(N3CCN(C)CC3)nc(N)n2)CC1`, for which, in experiment [1], the EC50 was 1350 nM. Also, the Efficacy in experiment [2] worked out at 68%. The same compound returned a negative-log Kb (pKb) in experiment [3] of 6.84.

The values are drawn from ChEMBL document CHEMBL1140148, “Structure-activity studies on a series of a 2-aminopyrimidine-containing histamine H4 receptor ligands” (J Med Chem, 2008).
